{"source": "ChEMBL document CHEMBL1201862", "about": "“PubChem BioAssay data set” (2004)", "key": {"cells [1]": {"test": "cells", "format": "functional"}, "[2]": {"test": "THP-1 cell cytotoxicity, dose response, cytotoxicity control for non-replicating M. tuberculosis project (AID 489025)", "format": "functional"}, "[3]": {"test": "Vero E6 cell cytotoxicity, dose response, cytotoxicity control for non-replicating M. tuberculosis project, secondary assay (AID 492998)", "format": "functional, VeroE6", "details": "Vero C1008"}, "[4]": {"test": "microbe, parasite or virus in culture", "format": "functional", "details": "Mycobacterium tuberculosis"}, "cells [5]": {"test": "cells", "format": "functional, cell-based"}, "HT-1080": {"test_system": "HT-1080", "test": "HT1080 cell viability loss – fluorescence readout (AID 620)", "format": "functional, cell-based", "details": "Homo sapiens"}, "[6]": {"target": "Luciferin 4-monooxygenase (Photinus pyralis, UniProt P08659)", "sequence (P08659 whole entry)": "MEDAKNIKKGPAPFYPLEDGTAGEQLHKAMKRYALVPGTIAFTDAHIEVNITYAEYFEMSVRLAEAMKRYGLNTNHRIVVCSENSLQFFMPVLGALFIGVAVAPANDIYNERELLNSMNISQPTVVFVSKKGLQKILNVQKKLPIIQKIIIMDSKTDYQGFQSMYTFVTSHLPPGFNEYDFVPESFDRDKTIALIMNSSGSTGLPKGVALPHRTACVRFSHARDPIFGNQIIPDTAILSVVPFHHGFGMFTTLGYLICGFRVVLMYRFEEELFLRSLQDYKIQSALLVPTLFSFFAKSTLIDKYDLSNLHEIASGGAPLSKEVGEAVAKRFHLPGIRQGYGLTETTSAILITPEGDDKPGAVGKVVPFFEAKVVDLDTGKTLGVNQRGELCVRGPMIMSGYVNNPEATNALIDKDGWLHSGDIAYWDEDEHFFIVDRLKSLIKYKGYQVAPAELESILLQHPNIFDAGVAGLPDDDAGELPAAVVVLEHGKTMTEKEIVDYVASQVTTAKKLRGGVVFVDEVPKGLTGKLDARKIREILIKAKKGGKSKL", "test": "Counter Screen for Luciferase-based Assay Positives. [Related pubchem assays: 620, 618, 411 ]"}, "[7]": {"target": "T1, Trace amine-associated receptor 1 (Homo sapiens, UniProt Q96RJ0)", "T1 sequence (Q96RJ0 whole entry)": "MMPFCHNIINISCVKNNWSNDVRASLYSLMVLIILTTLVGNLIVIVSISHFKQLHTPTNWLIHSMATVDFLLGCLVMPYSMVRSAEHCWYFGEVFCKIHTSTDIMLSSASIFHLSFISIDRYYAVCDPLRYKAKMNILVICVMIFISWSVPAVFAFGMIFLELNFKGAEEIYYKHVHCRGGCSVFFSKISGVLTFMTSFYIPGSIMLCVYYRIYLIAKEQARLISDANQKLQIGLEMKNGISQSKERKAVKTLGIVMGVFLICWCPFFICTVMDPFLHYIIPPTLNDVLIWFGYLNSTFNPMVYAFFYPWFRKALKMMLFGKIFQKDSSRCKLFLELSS", "test": "Fluorescence-based cell-based high throughput dose response assay to identify agonists of the human trace amine associated receptor 1 (TAAR1).", "format": "functional"}, "[8]": {"target": "T1, Trace amine-associated receptor 1", "test": "Counterscreen for agonists of the human trace amine associated receptor 1 (hTAAR1): Fluorescence-based cell-based high throughput dose response assay to identify hTAAR1 agonist that also desensitize TAAR1 receptor response.", "format": "functional"}, "cells [9]": {"test": "cells", "format": "functional, cell-based", "remark": "listed apart in the source"}, "[10]": {"test": "viability loss of HPDE-C7K cells – cell-based, fluorescence, HTS, primary screen (AID 431)", "format": "functional", "details": "Homo sapiens"}, "[11]": {"test": "HPDE-C7 pancreatic duct cell viability loss – fluorescence, HTS (AID 430)", "format": "functional, cell-based", "details": "Homo sapiens"}, "[12]": {"target": "DNA dC->dU-editing enzyme APOBEC-3G (Homo sapiens, UniProt Q9HC16)", "sequence (Q9HC16 whole entry)": "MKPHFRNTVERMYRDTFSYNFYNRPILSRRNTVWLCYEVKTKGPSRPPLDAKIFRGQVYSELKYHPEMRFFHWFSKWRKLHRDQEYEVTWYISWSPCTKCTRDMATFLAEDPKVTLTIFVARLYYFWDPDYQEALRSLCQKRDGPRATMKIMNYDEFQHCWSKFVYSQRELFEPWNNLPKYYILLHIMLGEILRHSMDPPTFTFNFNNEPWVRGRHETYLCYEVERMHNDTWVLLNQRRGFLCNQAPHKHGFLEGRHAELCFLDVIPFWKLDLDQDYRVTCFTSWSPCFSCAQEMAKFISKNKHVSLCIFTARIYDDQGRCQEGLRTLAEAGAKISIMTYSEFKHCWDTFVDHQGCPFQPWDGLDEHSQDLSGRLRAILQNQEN", "test": "Dose Response confirmation of small molecule APOBEC3G DNA Deaminase Inhibitors via a fluorescence-based single-stranded DNA deaminase assay. [Related pubchem assays (depositor defined):AID493012, AID493028]", "format": "functional"}, "[13]": {"target": "Heat shock protein HSP 90-alpha (Homo sapiens, UniProt P07900)", "format": "functional, organism-based"}, "[14]": {"target": "T2, Microphthalmia-associated transcription factor (Homo sapiens, UniProt O75030)", "T2 sequence (O75030 whole entry)": "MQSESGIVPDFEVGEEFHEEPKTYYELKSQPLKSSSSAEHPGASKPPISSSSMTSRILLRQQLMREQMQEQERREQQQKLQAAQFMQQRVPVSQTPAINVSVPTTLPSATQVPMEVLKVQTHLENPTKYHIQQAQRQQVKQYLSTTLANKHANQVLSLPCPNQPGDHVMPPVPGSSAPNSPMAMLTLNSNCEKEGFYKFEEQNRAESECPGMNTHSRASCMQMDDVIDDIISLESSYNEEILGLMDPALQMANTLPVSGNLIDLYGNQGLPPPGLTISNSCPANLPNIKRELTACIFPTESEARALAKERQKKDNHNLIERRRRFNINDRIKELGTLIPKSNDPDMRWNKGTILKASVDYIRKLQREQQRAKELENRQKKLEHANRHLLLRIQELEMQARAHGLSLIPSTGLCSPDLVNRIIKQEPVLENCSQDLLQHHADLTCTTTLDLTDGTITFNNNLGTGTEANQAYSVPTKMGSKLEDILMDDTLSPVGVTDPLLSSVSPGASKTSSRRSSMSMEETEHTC", "test": "reducers of TRPM1 reporter luminescence, concentration series – cell-based, SK-MEL-5, cherry-picked, set 3, MITF inhibitor project, dose response (AID 493073)", "format": "functional"}, "[15]": {"target": "Glyceraldehyde-3-phosphate dehydrogenase (Homo sapiens, UniProt P04406)"}, "[16]": {"test": "alpha-synuclein stem-loop luciferase translation blockers – H4 neuroglioma cells, luminescence, confirmation (AID 1988)", "format": "functional, cell-based"}, "BJ [17]": {"test_system": "BJ", "test": "BJ-TERT-LT-ST fibroblast viability loss – cell-based, RAS-independent, luminescence, dose response (AID 1935);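 note: BJ fibroblasts immortalized with TERT plus LT and ST oncogenes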", "format": "functional", "details": "Homo sapiens"}, "[18]": {"test": "luciferase reporter signal suppression in cells – H4 neuroglioma cells, luminescence, dose response (AID 1990)", "format": "functional, cell-based"}, "[19]": {"test": "DRD fibroblast viability loss – cell-based, non-viral oncogenic, luminescence, dose response (AID 1934)", "format": "functional", "details": "Homo sapiens"}, "BJ [20]": {"test_system": "BJ", "test": "BJ-TERT fibroblast viability loss – cell-based, RAS-independent, luminescence, dose response (AID 1933)", "format": "functional", "details": "Homo sapiens"}, "BJ [21]": {"test_system": "BJ", "test": "cells", "format": "functional, cell-based", "details": "Homo sapiens"}, "[22]": {"test": "Luminescence Cell-Based Dose Response HTS to Identify Inhibitors of 5'UTR Stem-Loop Driven Prion Protein mRNA Translation in H4 Neuroglioblastoma Cells. [Related pubchem assays: 1827 (Project Summary), 1813 (Primary HTS)]", "format": "functional"}, "[23]": {"target": "Peroxisome proliferator-activated receptor gamma/Nuclear receptor coactivator 1 (Homo sapiens, UniProt P37231)", "format": "functional"}, "[24]": {"target": "Peroxisome proliferator-activated receptor gamma/Nuclear receptor coactivator 3 (Homo sapiens, UniProt P37231)", "sequence (P37231 whole entry)": "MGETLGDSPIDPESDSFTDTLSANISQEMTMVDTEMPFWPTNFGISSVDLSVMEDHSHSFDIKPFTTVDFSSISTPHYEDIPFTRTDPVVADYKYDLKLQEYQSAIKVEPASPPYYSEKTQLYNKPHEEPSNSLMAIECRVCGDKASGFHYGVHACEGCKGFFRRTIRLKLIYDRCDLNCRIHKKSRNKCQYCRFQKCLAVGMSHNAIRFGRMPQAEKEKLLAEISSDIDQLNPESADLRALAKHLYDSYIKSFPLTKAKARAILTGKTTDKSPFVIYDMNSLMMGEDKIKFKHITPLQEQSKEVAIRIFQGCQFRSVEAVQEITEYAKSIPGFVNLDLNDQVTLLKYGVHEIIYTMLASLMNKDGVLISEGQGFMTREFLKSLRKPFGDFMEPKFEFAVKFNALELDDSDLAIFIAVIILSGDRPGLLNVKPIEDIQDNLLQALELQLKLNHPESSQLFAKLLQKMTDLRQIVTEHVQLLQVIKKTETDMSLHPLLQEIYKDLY", "sequence (Q9Y6Q9 whole entry, further chain)": "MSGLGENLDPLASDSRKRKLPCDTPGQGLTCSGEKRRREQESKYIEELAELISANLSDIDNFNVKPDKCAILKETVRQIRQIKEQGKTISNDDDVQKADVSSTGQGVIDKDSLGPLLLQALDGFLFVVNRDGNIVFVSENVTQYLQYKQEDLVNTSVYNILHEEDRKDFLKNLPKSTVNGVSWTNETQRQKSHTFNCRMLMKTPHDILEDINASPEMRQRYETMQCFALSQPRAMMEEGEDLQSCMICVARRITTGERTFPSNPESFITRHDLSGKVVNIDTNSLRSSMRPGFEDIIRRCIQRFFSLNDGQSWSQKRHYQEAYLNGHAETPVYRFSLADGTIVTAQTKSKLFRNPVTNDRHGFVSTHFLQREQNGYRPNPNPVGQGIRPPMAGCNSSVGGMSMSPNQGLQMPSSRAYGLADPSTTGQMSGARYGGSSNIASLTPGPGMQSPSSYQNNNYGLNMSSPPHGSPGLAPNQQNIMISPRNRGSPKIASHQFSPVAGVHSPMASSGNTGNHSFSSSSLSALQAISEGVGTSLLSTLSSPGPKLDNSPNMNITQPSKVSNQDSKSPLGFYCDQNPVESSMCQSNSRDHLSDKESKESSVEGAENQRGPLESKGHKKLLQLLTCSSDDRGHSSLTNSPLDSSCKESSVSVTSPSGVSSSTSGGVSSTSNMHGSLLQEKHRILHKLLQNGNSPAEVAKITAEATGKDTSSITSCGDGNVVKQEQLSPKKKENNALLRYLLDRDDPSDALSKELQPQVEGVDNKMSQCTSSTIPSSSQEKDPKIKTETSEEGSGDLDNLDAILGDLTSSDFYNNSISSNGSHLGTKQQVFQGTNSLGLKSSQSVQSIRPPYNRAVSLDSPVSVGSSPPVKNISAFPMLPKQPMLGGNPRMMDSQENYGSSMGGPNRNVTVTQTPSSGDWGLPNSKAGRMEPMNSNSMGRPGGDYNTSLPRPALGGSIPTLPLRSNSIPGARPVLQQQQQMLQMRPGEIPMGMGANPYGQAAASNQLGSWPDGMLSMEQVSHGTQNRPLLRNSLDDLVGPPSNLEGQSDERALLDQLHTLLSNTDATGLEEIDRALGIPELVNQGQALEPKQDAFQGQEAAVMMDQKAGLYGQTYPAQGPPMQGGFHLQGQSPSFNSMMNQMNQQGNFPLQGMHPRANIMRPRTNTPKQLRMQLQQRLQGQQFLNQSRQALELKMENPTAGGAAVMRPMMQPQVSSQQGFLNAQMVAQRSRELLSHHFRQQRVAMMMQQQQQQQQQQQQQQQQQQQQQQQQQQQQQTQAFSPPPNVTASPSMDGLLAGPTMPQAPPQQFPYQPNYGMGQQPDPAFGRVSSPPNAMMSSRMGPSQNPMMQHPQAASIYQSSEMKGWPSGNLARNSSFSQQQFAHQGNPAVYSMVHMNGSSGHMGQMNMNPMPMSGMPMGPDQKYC", "format": "functional"}, "[25]": {"target": "Peroxisome proliferator-activated receptor gamma/Nuclear receptor coactivator 2 (Homo sapiens, UniProt P37231)", "sequence (P37231 whole entry)": "as the sequence (P37231 whole entry) above", "sequence (Q15596 whole entry, further chain)": "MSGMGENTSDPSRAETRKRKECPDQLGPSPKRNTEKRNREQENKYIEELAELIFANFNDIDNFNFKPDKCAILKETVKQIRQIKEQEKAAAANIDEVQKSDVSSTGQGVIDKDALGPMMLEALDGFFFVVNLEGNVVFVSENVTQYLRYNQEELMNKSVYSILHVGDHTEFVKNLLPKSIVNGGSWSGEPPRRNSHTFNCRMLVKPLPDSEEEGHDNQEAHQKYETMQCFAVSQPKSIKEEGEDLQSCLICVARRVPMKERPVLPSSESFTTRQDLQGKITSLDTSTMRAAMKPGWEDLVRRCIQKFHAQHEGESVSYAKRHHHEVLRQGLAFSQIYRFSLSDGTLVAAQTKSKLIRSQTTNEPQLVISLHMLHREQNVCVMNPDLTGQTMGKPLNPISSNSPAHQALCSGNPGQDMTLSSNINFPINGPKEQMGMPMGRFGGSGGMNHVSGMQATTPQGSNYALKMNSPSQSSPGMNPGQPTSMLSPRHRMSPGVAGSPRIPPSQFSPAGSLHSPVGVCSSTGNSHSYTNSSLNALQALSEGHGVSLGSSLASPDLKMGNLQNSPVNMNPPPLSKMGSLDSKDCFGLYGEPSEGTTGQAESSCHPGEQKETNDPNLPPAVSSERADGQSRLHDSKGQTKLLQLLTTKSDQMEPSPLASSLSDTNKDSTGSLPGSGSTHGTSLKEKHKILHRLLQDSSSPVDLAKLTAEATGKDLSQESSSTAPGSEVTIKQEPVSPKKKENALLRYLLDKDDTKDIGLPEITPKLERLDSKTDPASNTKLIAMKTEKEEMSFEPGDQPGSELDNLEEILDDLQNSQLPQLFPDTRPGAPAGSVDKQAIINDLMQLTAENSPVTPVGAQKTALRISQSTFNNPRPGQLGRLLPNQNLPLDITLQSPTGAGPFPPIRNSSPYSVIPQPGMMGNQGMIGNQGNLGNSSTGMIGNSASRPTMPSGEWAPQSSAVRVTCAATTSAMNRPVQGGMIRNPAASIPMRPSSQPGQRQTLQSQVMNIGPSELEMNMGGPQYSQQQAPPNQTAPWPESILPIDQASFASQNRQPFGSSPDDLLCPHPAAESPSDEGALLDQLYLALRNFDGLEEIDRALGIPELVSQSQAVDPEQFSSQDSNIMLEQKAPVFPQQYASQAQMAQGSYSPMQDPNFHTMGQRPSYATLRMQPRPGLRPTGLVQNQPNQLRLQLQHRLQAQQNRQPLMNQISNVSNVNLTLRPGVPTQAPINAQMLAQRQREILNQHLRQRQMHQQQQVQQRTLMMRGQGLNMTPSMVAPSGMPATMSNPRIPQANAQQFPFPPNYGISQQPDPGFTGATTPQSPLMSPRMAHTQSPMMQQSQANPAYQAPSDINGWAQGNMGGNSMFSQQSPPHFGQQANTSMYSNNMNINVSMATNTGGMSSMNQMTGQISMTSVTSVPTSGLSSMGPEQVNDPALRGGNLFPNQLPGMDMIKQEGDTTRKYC", "format": "functional"}}, "note": "The source made the active and inactive calls."}
{"smiles": "O=C(Nc1ncc(Cc2ccccc2Cl)s1)C1=NCCN1", "values": [{"measurement": "IC50", "setting": "cells [1]", "result": "4.03 µM (active)"}, {"measurement": "CC50", "setting": "[2]", "result": "> 40 µM (active)"}, {"measurement": "CC50", "setting": "[3]", "result": "> 20 µM (active)"}, {"measurement": "CC50", "setting": "[4]", "result": "> 40 µM (active)"}]}
{"smiles": "Cc1cc(-c2csc(N)n2)c(C)n1CCc1ccccc1", "values": [{"measurement": "IC50", "setting": "cells [5]", "result": "> 29.9 µM (inactive)"}, {"measurement": "EC50", "setting": "HT-1080", "result": "> 50 µM (not active)"}, {"measurement": "EC50", "setting": "[6]", "result": "0.38 µM (active)"}, {"measurement": "EC50", "setting": "[7]", "result": "0.449 µM (active)"}, {"measurement": "IC50", "setting": "[8]", "result": "3.8 µM (active)"}, {"measurement": "EC50", "setting": "cells [9]", "result": "> 29.9 µM (inactive)"}]}
{"smiles": "O=C(O)CCSc1nc2cc(Br)ccc2[nH]1", "values": [{"measurement": "EC50", "setting": "[10]", "result": "> 20 µM (not active)"}, {"measurement": "EC50", "setting": "[11]", "result": "> 20 µM (not active)"}]}
{"smiles": "CCCCCC(=O)N(O)C1CC(=O)N(c2ccccc2)C1=O", "note": "(stereo not given)", "values": [{"measurement": "IC50", "setting": "[12]", "result": "59.7 µM (active)"}, {"measurement": "AC50", "setting": "[13]", "result": "4.5 µM (active)"}]}
{"smiles": "Cc1ccccc1C(=O)N/N=C/c1ccc([N+](=O)[O-])s1", "values": [{"measurement": "EC50", "setting": "HT-1080", "result": "> 50 µM (not active)"}, {"measurement": "EC50", "setting": "[6]", "result": "11 µM (active)"}, {"measurement": "AC50", "setting": "[14]", "result": "1.88 µM (active)"}]}
{"smiles": "O=C(CSc1nnc(-c2ccccc2)o1)Nc1ccccc1F", "values": [{"measurement": "IC50", "setting": "[15]", "result": "> 100 µM (not active)"}, {"measurement": "EC50", "setting": "[16]", "result": "1.21 µM (active)"}, {"measurement": "EC50", "setting": "BJ [17]", "result": "> 150 µM (inconclusive)"}, {"measurement": "EC50", "setting": "HT-1080", "result": "> 50 µM (not active)"}, {"measurement": "EC50", "setting": "[6]", "result": "2.93 µM (active)"}, {"measurement": "EC50", "setting": "[18]", "result": "4.09 µM (inconclusive)"}, {"measurement": "EC50", "setting": "[19]", "result": "8.39 µM (active)"}, {"measurement": "EC50", "setting": "BJ [20]", "result": "11.5 µM (active)"}, {"measurement": "EC50", "setting": "BJ [21]", "result": "7.86 µM (active)"}, {"measurement": "EC50", "setting": "[22]", "result": "1.07 µM (active)"}]}
{"smiles": "Cc1[nH]c2ccccc2c1C(=O)C(=O)NCCOc1ccccc1", "values": [{"measurement": "EC50", "setting": "[23]", "result": "> 79.4 µM (not active)"}, {"measurement": "EC50", "setting": "[24]", "result": "> 79.4 µM (not active)"}, {"measurement": "EC50", "setting": "[25]", "result": "> 79.4 µM (not active)"}]}
